Test results published in US12679878B2, “CRF2 receptor agonists and their use in therapy” (SANOFI, priority 2020, dated 2026).
Converted amounts (≈) assume the structure as drawn. Starred links: 1 amine or outer side, 2 acyl side, 3 side chain; linkers in the order of their positions; H or OH if unused. Non-standard residues stand in square brackets, D forms with d. Residues, ends and D or L forms follow the SMILES beside them. Groups on a side chain read outwards from the residue. *: point of attachment. C18 diacid = O=C(O)CCCCCCCCCCCCCCCCC(=O)*; γGlu = O=C(O)[C@H](CCC(=O)[*:2])N[*:1]; Palmitoyl = CCCCCCCCCCCCCCCC(=O)*; AEEA = NCCOCCOCC(=O)O; Aib = CC(C)(N)C(=O)O

How the values were obtained:
[1] = Solubility in buffer systems by UPLC-UV (Example 13); type: physicochemical
Method: Prior to performing the solubility measurements, the purity of the compounds was determined through UPLC/MS. […] Therefore, solutions from solid samples were prepared in a buffer system with a concentration of 10 mg/mL compound based on the previously determined % purity.
UPLC-UV was performed after 1 hour of gentle agitation from the supernatant, which was obtained after 15 minutes of centrifugation at 2500 RCF (relative centrifugal acceleration). The solubility was determined by the comparison of the UV peak area of a 2 μL-injection of a buffered sample diluted 1:10 with a standard curve of a reference compound with known concentration. The different UV extinction coefficients of sample and reference compound were calculated based on the different amino acid sequences and considered in the concentration calculation.

rat CRF2R α receptor = test: cAMP agonism at rat CRF2R α receptor in A7R5 rat aortic smooth muscle cells (Example 8); type: cell-based; conditions: cAMP HTRF, A7R5 rat aortic smooth muscle cell line, 0% HSA
Summary of the method: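 Thawed cryopreserved A7R5 cells in HBSS/20 mM HEPES (0 or 0.1% HSA) with 2 mM IBMX, 2000 cells/well, were exposed to compound for 30 min at room temperature. cAMP was read by HTRF (665/620 nm ratio) after 1 h with lysis reagents. Activity was normalised to 1000 nM urocortin 2 as 100%, and EC50 was taken as the concentration giving 50% of maximal activation.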

human CRF2α receptor = molecular target: T1, human CRF2α receptor (Homo sapiens, UniProt Q13324); test: cAMP agonism at human CRF2 α receptor in TeloHEAC cells (Example 7); type: cell-based; conditions: cAMP HTRF, TeloHEAC cells stably expressing human CRF2 α, 0% HSA; read-out: EC50 [nM], 0% HSA
T1 construct: expressed in transfected cells; host or cells: TeloHEAC
T1 sequence (Q13324 1-411): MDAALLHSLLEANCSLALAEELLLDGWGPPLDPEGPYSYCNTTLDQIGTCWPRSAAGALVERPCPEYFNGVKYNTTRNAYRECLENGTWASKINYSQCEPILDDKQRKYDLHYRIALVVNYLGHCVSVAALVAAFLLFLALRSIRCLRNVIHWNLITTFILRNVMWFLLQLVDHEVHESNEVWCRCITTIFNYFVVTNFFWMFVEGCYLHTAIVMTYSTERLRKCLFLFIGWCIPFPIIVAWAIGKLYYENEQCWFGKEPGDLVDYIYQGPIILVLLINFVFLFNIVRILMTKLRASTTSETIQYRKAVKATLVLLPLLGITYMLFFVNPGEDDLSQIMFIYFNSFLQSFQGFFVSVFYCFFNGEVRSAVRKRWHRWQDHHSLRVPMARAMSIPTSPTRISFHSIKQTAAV
Summary of the method: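 Percent activation was referenced to 1000 nM UCN2 (100%), and EC50 values taken as concentrations giving half of maximal response. The read-out was a homogeneous time-resolved fluorescence cAMP kit, fluorescence ratio 665/620 nm. Thawed cells (2000/well) saw compound for 30 min at RT in buffer with 2 mM IBMX and 0%/0.1% HSA.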

CRF1R receptor = molecular target: T2, CRF1R receptor (Homo sapiens, UniProt P34998); test: cAMP activity at anti-target CRF1R, CRF1R-overexpression CHO cell line (Example 9); type: cell-based; conditions: CRF1R-overexpression CHO cell line; for Emax: read-out: Emax (%)
T2 construct: host or cells: CHO-K1 clone 2
T2 sequence (P34998 24-415): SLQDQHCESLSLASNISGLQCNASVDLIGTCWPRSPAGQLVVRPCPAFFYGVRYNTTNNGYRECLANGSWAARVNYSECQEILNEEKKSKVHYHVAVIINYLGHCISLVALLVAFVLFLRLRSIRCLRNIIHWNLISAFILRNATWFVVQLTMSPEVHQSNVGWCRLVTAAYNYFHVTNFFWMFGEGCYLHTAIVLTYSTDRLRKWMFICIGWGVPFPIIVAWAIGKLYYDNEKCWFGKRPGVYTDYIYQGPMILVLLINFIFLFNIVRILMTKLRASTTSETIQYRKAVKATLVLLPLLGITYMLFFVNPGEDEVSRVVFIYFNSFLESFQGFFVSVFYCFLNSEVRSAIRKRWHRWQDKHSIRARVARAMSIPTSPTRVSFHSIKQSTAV
Summary of the method: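 cAMP accumulation was read by HTRF after 30 min at room temperature of compound treatment. Cells were cryopreserved CHO cells overexpressing CRF1R, plated at 2000/well in IBMX (2 mM)-containing HBSS/HEPES buffer with 0 or 0.1% HSA. Activity was normalized to 1000 nM UCN2 as 100%.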

[2] = pH 4.5, Solubility in Buffer A [mg/ml]
[3] = pH 4.5, Solubility in Buffer B [mg/ml]
[4] = pH 7.4, Solubility in Buffer C [mg/ml]

SMILES | solubility at 1 h [1, 2] [µg/mL] | solubility at 1 h [1, 3] [µg/mL] | EC50 (rat CRF2R α receptor) [nM] | EC50 (human CRF2α receptor) [nM] | solubility at 1 h [1, 4] [µg/mL] | Emax (CRF1R receptor) [%] | EC50 (CRF1R receptor; 0% HSA) [nM]
CCCCCCCCCCCCCCCC(=O)N[C@@H](CCC(=O)NCCCC[C@H](NC(=O)[C@H](CC(C)C)NC(=O)[C@H](CCCCN)NC(=O)[C@@H](NC(=O)[C@@H]1CCCN1C(=O)[C@H](NC(=O)[C@H](CC(=O)O)NC(=O)[C@H](CC(C)C)NC(=O)[C@H](CO)NC(=O)[C@H](CC(C)C)NC(=O)[C@@H](NC(=O)[C@@H](N)[C@@H](C)CC)C(C)C)C(C)C)[C@@H](C)O)C(=O)N[C@@H](CCC(N)=O)C(=O)N[C@@H](CCCCN)C(=O)N[C@@H](CC(C)C)C(=O)N[C@@H](CC(C)C)C(=O)N[C@@H](CCCCN)C(=O)N[C@@H](CCC(N)=O)C(=O)N[C@@H](CCC(=O)O)C(=O)N[C@@H](CCCNC(=N)N)C(=O)N[C@@H](CCC(N)=O)C(=O)N[C@@H](CCCNC(=N)N)C(=O)N[C@@H](CCCCN)C(=O)N[C@@H](CCC(=O)O)C(=O)N[C@@H](CCCNC(=N)N)C(=O)N[C@@H](CCC(=O)O)C(=O)N[C@@H](CCC(N)=O)C(=O)N[C@@H](C)C(=O)N[C@@H](CCC(=O)O)C(=O)N[C@@H](CCCCN)C(=O)N[C@@H](CC(N)=O)C(=O)N[C@@H](CCCCN)C(=O)N[C@@H](CCCNC(=N)N)C(=O)N[C@H](C(=O)N[C@@H](CC(C)C)C(=O)N[C@@H](CCC(=O)O)C(=O)N[C@@H](CCCNC(=N)N)C(=O)N[C@H](C(N)=O)C(C)C)[C@@H](C)CC)C(=O)O [compound 18] (H-IVLSLD[dV]PTKLK([γGlu-Palmitoyl])QKLLKQERQRKEREQAEKNKRILERV-NH2) | > 10200 | > 9300 | 0.02 | 0.03 |  |  | 
CCCCCCCCCCCCCCCC(=O)N[C@@H](CCC(=O)NCCCC[C@H](NC(=O)[C@H](CC(C)C)NC(=O)[C@H](CCCCN)NC(=O)[C@@H](NC(=O)[C@@H]1CCCN1C(=O)[C@H](NC(=O)[C@H](CC(=O)O)NC(=O)[C@H](CC(C)C)NC(=O)[C@H](CO)NC(=O)[C@H](CC(C)C)NC(=O)[C@@H](NC(=O)[C@@H](N)[C@@H](C)CC)C(C)C)C(C)C)[C@@H](C)O)C(=O)N[C@@H](CCC(N)=O)C(=O)N[C@@H](CCCCN)C(=O)N[C@@H](CC(C)C)C(=O)N[C@@H](CC(C)C)C(=O)N[C@@H](CCCCN)C(=O)N[C@@H](CCC(N)=O)C(=O)N[C@@H](CCC(=O)O)C(=O)N[C@@H](CCCNC(=N)N)C(=O)N[C@@H](CCC(N)=O)C(=O)N[C@@H](CCCNC(=N)N)C(=O)NC(C)(C)C(=O)N[C@@H](CCC(=O)O)C(=O)N[C@@H](CCCNC(=N)N)C(=O)N[C@@H](CCC(=O)O)C(=O)N[C@@H](CCC(N)=O)C(=O)N[C@@H](C)C(=O)N[C@@H](CCC(=O)O)C(=O)N[C@@H](CCCCN)C(=O)N[C@@H](CC(N)=O)C(=O)N[C@@H](CCCCN)C(=O)N[C@@H](CCCNC(=N)N)C(=O)N[C@H](C(=O)N[C@@H](CC(C)C)C(=O)N[C@@H](CCC(=O)O)C(=O)N[C@@H](CCCNC(=N)N)C(=O)N[C@H](C(N)=O)C(C)C)[C@@H](C)CC)C(=O)O [compound 19] (H-IVLSLD[dV]PTKLK([γGlu-Palmitoyl])QKLLKQERQR[Aib]EREQAEKNKRILERV-NH2; N-terminus assumed) | > 10200 | > 10800 |  | 0.01 | 5700 (≈ 1150 µM) | 57.4 | 
CCCCCCCCCCCCCCCC(=O)N[C@@H](CCC(=O)NCCCC[C@H](NC(=O)[C@H](CC(C)C)NC(=O)[C@H](CCCCN)NC(=O)[C@@H](NC(=O)[C@@H]1CCCN1C(=O)[C@H](NC(=O)[C@H](CC(=O)O)NC(=O)[C@H](CC(C)C)NC(=O)[C@H](CO)NC(=O)[C@H](CC(C)C)NC(=O)[C@@H](NC(=O)[C@@H](N)[C@@H](C)CC)C(C)C)C(C)C)[C@@H](C)O)C(=O)N[C@@H](CCC(N)=O)C(=O)N[C@@H](CCCCN)C(=O)N[C@@H](CC(C)C)C(=O)N[C@@H](CC(C)C)C(=O)N[C@@H](CCCCN)C(=O)N[C@@H](CCC(N)=O)C(=O)N[C@@H](CCC(=O)O)C(=O)N[C@@H](CCCNC(=N)N)C(=O)N[C@@H](CCC(N)=O)C(=O)N[C@@H](CCCNC(=N)N)C(=O)N[C@@H](CCCCN)C(=O)N[C@@H](CCC(=O)O)C(=O)N[C@@H](CCCNC(=N)N)C(=O)N[C@@H](CCC(=O)O)C(=O)N[C@@H](CCC(N)=O)C(=O)N[C@@H](C)C(=O)N[C@@H](CCC(=O)O)C(=O)N[C@@H](CCCCN)C(=O)N[C@@H](CC(N)=O)C(=O)N[C@H](C(=O)N[C@@H](CCCNC(=N)N)C(=O)N[C@H](C(=O)N[C@@H](CC(C)C)C(=O)N[C@@H](CCC(=O)O)C(=O)N[C@@H](CCCNC(=N)N)C(=O)N[C@H](C(N)=O)C(C)C)[C@@H](C)CC)C(C)C)C(=O)O [compound 32] (H-IVLSLD[dV]PTKLK([γGlu-Palmitoyl])QKLLKQERQRKEREQAEKNVRILERV-NH2) |  |  |  | 0.01 | 8600 (≈ 1730 µM) | 27 | > 1000
CC[C@H](C)[C@H](N)C(=O)N[C@H](C(=O)N[C@@H](CC(C)C)C(=O)N[C@@H](CO)C(=O)N[C@@H](CC(C)C)C(=O)N[C@@H](CC(=O)O)C(=O)N[C@H](C(=O)N1CCC[C@H]1C(=O)N[C@H](C(=O)N[C@@H](CCCCN)C(=O)N[C@@H](CC(C)C)C(=O)N[C@@H](CCCCNC(=O)COCCOCCNC(=O)COCCOCCNC(=O)CC[C@H](NC(=O)CCCCCCCCCCCCCCCCC(=O)O)C(=O)O)C(=O)N[C@@H](CCC(N)=O)C(=O)N[C@H](C(=O)N[C@@H](CC(C)C)C(=O)N[C@@H](CC(C)C)C(=O)N[C@@H](CCC(=O)O)C(=O)N[C@@H](CCC(N)=O)C(=O)N[C@@H](C)C(=O)N[C@@H](CCCCN)C(=O)N[C@@H](CCC(N)=O)C(=O)N[C@@H](CCCCN)C(=O)N[C@@H](CCCCN)C(=O)N[C@@H](CC(C)C)C(=O)N[C@@H](CCCNC(=N)N)C(=O)N[C@@H](C)C(=O)N[C@@H](CCC(N)=O)C(=O)N[C@@H](C)C(=O)N[C@@H](CCC(=O)O)C(=O)N[C@H](C(=O)N[C@@H](CC(N)=O)C(=O)N[C@H](C(=O)N[C@@H](CCCNC(=N)N)C(=O)N[C@H](C(=O)N[C@@H](CC(C)C)C(=O)N[C@@H](CCC(=O)O)C(=O)N[C@@H](CCCNC(=N)N)C(=O)N[C@H](C(N)=O)C(C)C)[C@@H](C)CC)C(C)C)[C@@H](C)O)[C@@H](C)CC)[C@@H](C)CC)C(C)C)C(C)C [compound 43] (H-IVLSLDVPIKLK([AEEA-AEEA-γGlu-C18 diacid])QILLEQAKQKKLRAQAETNVRILERV-NH2; N-terminus assumed) |  |  | 11.5 | 1.9 | > 9800 |  | 
